The target of assay [1] is T1, CDK12–cyclin K and DDB1 (Homo sapiens, UniProt Q16531+Q9NYV4, K965R).
T1 construct: His6–CDK12 (a.a. 713–1,052); full-length or beta-propeller B domain deletion (ΔBPB: a.a. 396–705 deleted) constructs of His6–DDB1ΔBPB, StrepII–Avi–DDB1, or His6–Spy–DDB1; made in house; host or cells: Trichoplusia ni High Five insect cells (baculovirus)
The assay is described as follows: TR-FRET ternary complex formation assay (compound titration). The format is binding. Particulars: for TR-FRET signal at compound concentration: replicate titrations. In outline: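 Signal was the ratio of 520 nm to 490 nm fluorescence, measured after a 70 μs delay that reduced background.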
(Time-resolved FRET reads energy transfer from a long-lived donor to a nearby acceptor.)

The subject of assay [2] is cyclin K–eGFP degradation reporter. Nature of the assay: Cyclin K reporter stability analysis (dual-color cyclin K–eGFP reporter). The format is cell-based, human. Particulars: source data sheet correlations; read-out: DC50. In outline: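 Readout was the eGFP-to-mCherry geometric-mean ratio by flow cytometry, normalized to three DMSO controls, after 5 h drug exposure. Cells used were HEK293T–Cas9 expressing the dual-colour cyclin K–eGFP degradation reporter.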

Assay [3] deals with HEK293T cells. The assay is described as follows: Drug sensitivity assay (CellTiter-Glo viability) with or without MLN4924 pretreatment. The format is cell-based, human. Particulars: for EC50: Homo sapiens, HEK-293T; for Toxicity rescue: MLN4924-mediated cytotoxicity rescue, 10 µM used where n.d. Put shortly:
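HEK293T–Cas9, 0.15 × 10^6 ml^−1; pretreat DMSO vs 100 nM MLN4924; drugs dispensed after 2 h; 3 d exposure; CellTiter-Glo; viability vs DMSO control.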

[4] abbreviates: in vitro complex formation, 50 nM CDK12–cyclin K, 100 nM DDB1, text and figures, read-out: TR-FRET EC50.
Where [5] appears, read: source data sheet correlations, read-out: TR-FRET EC50.
Where [6] appears, read: Supplementary Table 2, HEK293T viability, 72 h, compound alone, read-out: Cellular assays EC50.
The mark [7] stands for this setting: compound concentration 0.468 nM.
The mark [8] stands for this setting: compound concentration 7.92001 nM.
[9] abbreviates: compound concentration 15.84 nM.
[10] abbreviates: compound concentration 30.96 nM.
The mark [11] stands for this setting: compound concentration 62.6401 nM.
[12] abbreviates: compound concentration 125.28 nM.
[13] abbreviates: compound concentration 244.8 nM.
Setting [14] is: compound concentration 993.601 nM.
[15] abbreviates: compound concentration 2001.6 nM.
Setting [16] is: sheet MOESM7, read-out: log TR-FRET EC50 (converted).

Several values for one entry are separate records, joined by “and”; a condition that tells them apart may be missing. Equal values may be shown once. Read-outs that look alike come from different tables or passages of the source.

The record followed here is article PMC10746543, “Design principles for cyclin K molecular glue degraders” (Nature Chemical Biology, 2023).

T1 sequence (Q9NYV4 713-1052 K965R): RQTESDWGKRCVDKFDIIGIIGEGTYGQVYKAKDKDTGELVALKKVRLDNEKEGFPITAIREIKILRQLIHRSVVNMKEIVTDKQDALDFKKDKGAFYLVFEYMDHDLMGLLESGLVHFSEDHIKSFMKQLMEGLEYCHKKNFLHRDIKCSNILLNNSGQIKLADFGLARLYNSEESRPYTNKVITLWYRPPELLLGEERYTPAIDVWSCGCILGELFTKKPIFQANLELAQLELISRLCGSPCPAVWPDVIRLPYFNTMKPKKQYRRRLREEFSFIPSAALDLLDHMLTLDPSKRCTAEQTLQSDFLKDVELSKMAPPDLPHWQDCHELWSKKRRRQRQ
T1 sequence (O75909 1-267 partner): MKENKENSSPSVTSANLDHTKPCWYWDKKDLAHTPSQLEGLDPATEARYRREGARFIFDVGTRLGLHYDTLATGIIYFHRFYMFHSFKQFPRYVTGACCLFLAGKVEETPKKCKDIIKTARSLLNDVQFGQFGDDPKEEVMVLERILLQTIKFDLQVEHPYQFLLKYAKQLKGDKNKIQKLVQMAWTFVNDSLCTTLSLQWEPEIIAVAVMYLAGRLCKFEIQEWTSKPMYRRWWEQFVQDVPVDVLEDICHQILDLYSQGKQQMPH
T1 sequence (Q16531 whole entry): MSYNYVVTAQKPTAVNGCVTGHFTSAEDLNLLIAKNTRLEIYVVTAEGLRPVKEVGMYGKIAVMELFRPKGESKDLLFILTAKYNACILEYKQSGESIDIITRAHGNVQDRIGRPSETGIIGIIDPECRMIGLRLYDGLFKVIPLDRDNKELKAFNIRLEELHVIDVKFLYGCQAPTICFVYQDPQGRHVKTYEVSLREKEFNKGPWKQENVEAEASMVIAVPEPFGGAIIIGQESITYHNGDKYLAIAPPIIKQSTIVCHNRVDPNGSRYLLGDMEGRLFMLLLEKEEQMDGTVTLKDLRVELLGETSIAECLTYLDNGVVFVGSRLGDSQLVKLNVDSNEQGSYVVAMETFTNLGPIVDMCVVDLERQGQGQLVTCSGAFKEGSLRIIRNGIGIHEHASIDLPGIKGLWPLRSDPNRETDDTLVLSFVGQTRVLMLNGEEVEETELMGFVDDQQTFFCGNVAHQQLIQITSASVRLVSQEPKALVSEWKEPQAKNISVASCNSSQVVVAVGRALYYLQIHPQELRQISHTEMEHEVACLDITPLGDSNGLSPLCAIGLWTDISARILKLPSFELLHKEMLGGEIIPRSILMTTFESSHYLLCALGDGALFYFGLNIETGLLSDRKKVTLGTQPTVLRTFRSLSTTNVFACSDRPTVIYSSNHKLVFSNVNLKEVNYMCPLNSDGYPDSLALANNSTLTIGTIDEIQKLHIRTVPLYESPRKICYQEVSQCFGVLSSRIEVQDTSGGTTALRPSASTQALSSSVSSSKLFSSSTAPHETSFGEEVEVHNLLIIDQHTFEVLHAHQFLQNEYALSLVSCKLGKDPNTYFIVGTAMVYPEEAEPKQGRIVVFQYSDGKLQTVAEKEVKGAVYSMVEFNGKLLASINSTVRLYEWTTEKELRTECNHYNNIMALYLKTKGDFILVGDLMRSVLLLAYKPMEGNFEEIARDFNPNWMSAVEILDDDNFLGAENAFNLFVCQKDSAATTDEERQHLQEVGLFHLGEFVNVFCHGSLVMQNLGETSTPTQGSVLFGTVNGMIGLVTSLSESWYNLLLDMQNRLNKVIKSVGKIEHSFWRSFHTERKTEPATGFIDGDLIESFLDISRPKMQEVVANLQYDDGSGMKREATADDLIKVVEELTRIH

On to `CC[C@H](CO)Nc1nc(NCc2ccc(OCCO)cc2)c2ncn(C(C)C)c2n1` [DS61], for which the TR-FRET signal in assay [1] (compound concentration 4.68 nM) is 0.1556 and 0.1596; in assay [1] (compound concentration 21.6 nM) it was 0.2553 and 0.252; in assay [1] (compound concentration 36 nM), 0.4296 and 0.427; in assay [1] (compound concentration 79.2001 nM), 0.6728 and 0.6901; in assay [1] (compound concentration 158.4 nM), 0.9753 and 0.9579; in assay [1] (compound concentration 309.6 nM), 1.242 and 1.248. Moreover, the TR-FRET signal in assay [1] (compound concentration 626.401 nM) is 1.483 and 1.517; in assay [1] (compound concentration 1252.8 nM), 1.637 and 1.718; in assay [1] (compound concentration 2448 nM), 1.781 and 1.804; in assay [1] (compound concentration 9936.01 nM), 1.87 and 1.831; in assay [1] (compound concentration 20016 nM), 1.812 and 1.801. Further, the EC50 (usually the concentration that produces a half-maximal response) is 169 ± 7 nM in assay [1] (setting [4]); 168 nM in assay [1] (setting [5]); 281 nM in assay [3] (Supplementary Fig. 5, HEK293T, CellTiter Glo, 72h, read-out: Viability EC50, no MLN4924); 283 nM in assay [3] (setting [6]). Also, the DC50 (commonly the concentration at which degradation of the target reaches its halfway point) in assay [2] is 917 nM. Further, in assay [3] (Supplementary Table 2), the Toxicity rescue came to 278%.

In the case of `CC[C@H](CO)Nc1nc(NCCCc2ccc(Cl)c(Cl)c2)c2ncn(C(C)C)c2n1` [DS65], the “TR-FRET signal at compound concentration” value in assay [1] (setting [7]) was 0.285 and 0.2127 and 0.2055; in assay [1] (compound concentration 2.16 nM), 0.3417 and 0.2944 and 0.2907; in assay [1] (compound concentration 3.6 nM) it was 0.5004 and 0.4783 and 0.4869; in assay [1] (setting [8]) it was 0.7813 and 0.9382 and 0.8877; in assay [1] (setting [9]), 1.382 and 1.799 and 1.705; in assay [1] (setting [10]), 2.38 and 2.795 and 2.787. For the same molecule, the “TR-FRET signal at compound concentration” value was 3.286 and 3.376 and 3.32 in assay [1] (setting [11]); 3.728 and 3.691 and 3.7229 in assay [1] (setting [12]); 3.806 and 3.848 and 3.815 in assay [1] (setting [13]); 3.884 and 3.899 and 3.865 in assay [1] (setting [14]); 3.902 and 3.823 and 3.872 in assay [1] (setting [15]). Besides, the EC50 is 21 ± 1 nM in assay [1] (setting [4]), 20.8 nM in assay [1] (setting [16]), 20.8 nM in assay [1] (setting [5]) and 528 nM in assay [3] (setting [6]). Besides, the DC50 in assay [2] was found to be 103 nM. For the same molecule, in assay [3] (Supplementary Table 2), the Toxicity rescue is given as 214%.

On to `CC[C@H](CO)Nc1nc(NCCCc2ccc(C)c(C)c2)c2ncn(C(C)C)c2n1` [DS66], for which the “TR-FRET signal at compound concentration” value in assay [1] (setting [7]) is 0.2923 and 0.3076 and 0.198 and 0.2218; in assay [1] (compound concentration 2.16 nM), 0.3989 and 0.4255 and 0.2838 and 0.3021; in assay [1] (compound concentration 3.6 nM) it was 0.6137 and 0.6924 and 0.4704 and 0.4752; in assay [1] (setting [8]), 1.224 and 1.234 and 0.9118 and 0.9562; in assay [1] (setting [9]) it was 2 and 2.2 and 1.736 and 1.809; in assay [1] (setting [10]), 3.161 and 3.3799 and 3.037 and 2.9897. Further, the “TR-FRET signal at compound concentration” value in assay [1] (setting [11]) was 3.7362 and 4.009 and 3.696 and 3.655; in assay [1] (setting [12]) it was 3.905 and 4.159 and 3.906 and 3.9109; in assay [1] (setting [13]), 4.008 and 4.194 and 3.9625 and 4.012; in assay [1] (setting [14]), 4.134 and 4.267 and 4.125 and 4.115; in assay [1] (setting [15]), 4.074 and 4.31 and 4.121 and 4.142. For the same molecule, the EC50 in assay [1] (setting [4]) is 18 ± 1 nM; in assay [1] (setting [16]), 17.7 nM; in assay [1] (setting [5]) it was 17.7 nM; in assay [3] (setting [6]), above 10000 nM. Moreover, the DC50 in assay [2] was determined as 88 nM. The Toxicity rescue in assay [3] (Supplementary Table 2) amounted to 0%.

`CCc1cccc(CCCNc2nc(N[C@H](CC)CO)nc3c2ncn3C(C)C)c1` [DS67]: the “TR-FRET signal at compound concentration” value in assay [1] (setting [7]) was 0.3354 and 0.3368; in assay [1] (compound concentration 2.16 nM), 0.4163 and 0.4021; in assay [1] (compound concentration 3.6 nM), 0.5886 and 0.5847; in assay [1] (setting [8]) it was 0.9073 and 0.903; in assay [1] (setting [9]), 1.493 and 1.552; in assay [1] (setting [10]) it was 2.297 and 2.228. The “TR-FRET signal at compound concentration” value was 3.049 and 3.013 in assay [1] (setting [11]); 3.561 and 3.406 in assay [1] (setting [12]); 3.933 and 3.877 in assay [1] (setting [13]); 4.034 and 4.0558 in assay [1] (setting [14]); 4.271 and 4.04 in assay [1] (setting [15]). The EC50 in assay [1] (setting [4]) was 31 ± 1 nM; in assay [1] (setting [16]) it was 30.5 nM; in assay [1] (setting [5]), 30.5 nM; in assay [3] (setting [6]) it was 517 nM. Further, the DC50 in assay [2] came out at 219 nM. The Toxicity rescue in assay [3] (Supplementary Table 2) turned out to be 819%.

Consider `CC[C@H](CO)Nc1nc(NCCCc2cccc(O)c2)c2ncn(C(C)C)c2n1` [DS68], for which the TR-FRET signal was 0.3136 and 0.2898 in assay [1] (setting [7]); 0.3334 and 0.33 in assay [1] (compound concentration 2.16 nM); 0.3697 and 0.368 in assay [1] (compound concentration 3.6 nM); 0.4418 and 0.4327 in assay [1] (setting [8]); 0.566 and 0.543 in assay [1] (setting [9]); 0.7892 and 0.7403 in assay [1] (setting [10]). In addition, the TR-FRET signal was 1.141 and 1.026 in assay [1] (setting [11]); 1.566 and 1.513 in assay [1] (setting [12]); 2.027 and 2.001 in assay [1] (setting [13]); 2.439 and 2.564 in assay [1] (setting [14]); 2.241 and 2.631 in assay [1] (setting [15]). The “TR-FRET signal at compound concentration” value in assay [1] (setting [7]) is 0.3136 and 0.2898; in assay [1] (compound concentration 2.16 nM), 0.3334 and 0.33; in assay [1] (compound concentration 3.6 nM), 0.3697 and 0.368; in assay [1] (setting [8]), 0.4418 and 0.4327; in assay [1] (setting [9]) it was 0.566 and 0.543; in assay [1] (setting [10]), 0.7892 and 0.7403. Further, the “TR-FRET signal at compound concentration” value in assay [1] (setting [11]) was 1.141 and 1.026; in assay [1] (setting [12]) it was 1.566 and 1.513; in assay [1] (setting [13]) it was 2.027 and 2.001; in assay [1] (setting [14]) it was 2.439 and 2.564; in assay [1] (setting [15]) it was 2.241 and 2.631. The EC50 was 104 ± 7 nM in assay [1] (setting [4]); 104 nM in assay [1] (setting [5]); 109000 nM in assay [3] (Supplementary Fig. 5, HEK293T, CellTiter Glo, 72h, pre-treatment with 100 nM MLN4924, read-out: Viability EC50, with MLN4924); 2520 nM in assay [3] (setting [6]). In assay [2], the DC50 was 571 nM. Besides, the Toxicity rescue in assay [3] (Supplementary Table 2) amounted to 296%.

For the molecule `CC[C@H](CO)Nc1nc(NCCCc2cccc(C)n2)c2ncn(C(C)C)c2n1` [DS69], the “TR-FRET signal at compound concentration” value in assay [1] (setting [7]) is 0.3264 and 0.326; in assay [1] (compound concentration 2.16 nM), 0.4029 and 0.3893; in assay [1] (compound concentration 3.6 nM), 0.5395 and 0.5039; in assay [1] (setting [8]), 0.8326 and 0.7539; in assay [1] (setting [9]) it was 1.268 and 1.146; in assay [1] (setting [10]) it was 1.86 and 1.701. For the same molecule, the “TR-FRET signal at compound concentration” value is 2.3803 and 2.291 in assay [1] (setting [11]); 2.963 and 2.837 in assay [1] (setting [12]); 3.2576 and 3.227 in assay [1] (setting [13]); 3.4627 and 3.352 in assay [1] (setting [14]); 3.462 and 3.373 in assay [1] (setting [15]). Moreover, the EC50 in assay [1] (setting [4]) is 36 ± 1 nM; in assay [1] (setting [16]), 35.9 nM; in assay [1] (setting [5]), 35.9 nM; in assay [3] (setting [6]) it was 864 nM. In addition, in assay [2], the DC50 came out at 217 nM. For the same molecule, the Toxicity rescue in assay [3] (Supplementary Table 2) is 599%.
